Test results published in US20240150368A1, “ULK INHIBITORS AND METHODS OF USE THEREOF” (Deciphera Pharmaceuticals, LLC, priority 2022, published 2024).

How the values were obtained:
ULK2 kinase = target: T1, ULK2 kinase (Homo sapiens, UniProt Q8IYT8); experiment: Biochemical assay for ULK2 (coupled pyruvate kinase/lactate dehydrogenase assay); conditions: 1 mM ATP, 1 nM ULK2; read-out: ULK2 (inhibition of biochemical activity), IC50
T1 construct: (residues 1-306 with N-terminal GST and His tag; ID NO: 2); purchased Signal Chem U02-11G
T1 sequence (Q8IYT8 with tags, fused parts or gaps): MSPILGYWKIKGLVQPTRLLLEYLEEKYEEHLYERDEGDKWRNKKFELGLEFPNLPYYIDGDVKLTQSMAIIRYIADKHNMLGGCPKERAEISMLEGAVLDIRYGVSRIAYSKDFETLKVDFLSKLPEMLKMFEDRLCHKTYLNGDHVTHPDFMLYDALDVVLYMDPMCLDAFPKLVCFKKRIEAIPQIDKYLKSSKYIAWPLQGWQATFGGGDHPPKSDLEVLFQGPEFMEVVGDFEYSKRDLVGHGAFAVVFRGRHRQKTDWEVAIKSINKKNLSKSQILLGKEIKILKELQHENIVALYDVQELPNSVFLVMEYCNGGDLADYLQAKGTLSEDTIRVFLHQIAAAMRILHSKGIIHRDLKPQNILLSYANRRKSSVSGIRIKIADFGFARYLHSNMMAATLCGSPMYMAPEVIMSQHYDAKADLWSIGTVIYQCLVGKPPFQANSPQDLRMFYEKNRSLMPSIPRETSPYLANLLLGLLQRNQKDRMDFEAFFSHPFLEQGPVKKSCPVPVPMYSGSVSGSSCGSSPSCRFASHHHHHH
Method in brief: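 Continuous PK/LDH-coupled NADH oxidation assay (A340) with 1 nM ULK2, 200 μM ULKtide and 1 mM ATP in Tris pH 7.5, 15 mM MgCl2, 1% DMSO, read 6 h at 30° C. Rates from the 2-3 h window converted to percent inhibition against no-compound and known-inhibitor controls; IC50 by four-parameter sigmoidal fit.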

[1] = tested on: ULK kinase substrate ATG13 (pS318-ATG13) in A549 (KRAS mutant) cells; experiment: pATG13 levels of mutant KRas A549 cells after treatment with ULK inhibitors in combination with trametinib (ELISA); format: cell-based, human
Method in brief: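 A549 cells grown overnight were treated with a test-compound dose response plus trametinib at 250 nM final (or DMSO) overnight at 37° C. Lysates were assayed by total-ATG13 capture and biotinylated pS318-ATG13 detection ELISA (450 nm minus 540 nm background); % phosphorylation versus controls gave IC50 values.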

ULK1 kinase = target: T2, ULK1 kinase (Homo sapiens, UniProt O75385, E37A/K38A); experiment: Biochemical assay for ULK1 (coupled pyruvate kinase/lactate dehydrogenase assay); conditions: 1 mM ATP, 0.1 nM ULK1; read-out: ULK1 (inhibition of biochemical activity), IC50
T2 construct: (residues 1-283; ID NO: 1); purchased Beryllium
T2 sequence (O75385 1-283 E37A/K38A): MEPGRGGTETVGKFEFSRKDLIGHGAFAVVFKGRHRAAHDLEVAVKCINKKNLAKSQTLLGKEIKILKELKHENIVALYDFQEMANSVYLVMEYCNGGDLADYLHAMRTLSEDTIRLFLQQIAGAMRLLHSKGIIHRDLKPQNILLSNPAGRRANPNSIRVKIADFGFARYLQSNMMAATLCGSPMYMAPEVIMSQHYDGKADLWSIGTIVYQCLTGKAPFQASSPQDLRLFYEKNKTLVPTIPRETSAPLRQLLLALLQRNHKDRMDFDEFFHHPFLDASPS
Method in brief: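 IC50 values were fitted to percent inhibition, normalised with no-compound and known-inhibitor controls, using rates from 2–3 h of a 6 h read at 30 °C. ADP was coupled through pyruvate kinase/lactate dehydrogenase to NADH loss at 340 nm.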

Compound | IC50 (ULK2 kinase) | IC50 [1] | IC50 (ULK1 kinase)
CC/C(Nc1cnn(C(F)(F)F)c1)=C1/C(=O)Nc2ccc(C(=O)NCC(F)(F)F)cc21 [Example 113] | 10 to 100 nM | 100 to 300 nM | 10 to 100 nM
CC/C(Nc1cnn(C(F)F)c1)=C1/C(=O)Nc2ccc(C(=O)NCC(F)(F)F)cc21 [Example 114] | 10 to 100 nM | 100 to 300 nM | 10 to 100 nM
CC/C(Nc1cnn(C2CC2)c1)=C1/C(=O)Nc2ccc(C(=O)NCC(F)(F)F)cc21 [Example 116] | 10 to 100 nM | ≤ 100 nM | 10 to 100 nM
CC/C(Nc1cnn(C2COC2)c1)=C1/C(=O)Nc2ccc(C(=O)NCC(F)(F)F)cc21 [Example 118] | 10 to 100 nM | 300 to 600 nM | ≤ 10 nM
CC/C(Nc1cnn(C(C)C)c1)=C1/C(=O)Nc2ccc(C(=O)N[C@H](C)C(F)(F)F)cc21 [Example 119] | 10 to 100 nM | ≤ 100 nM | ≤ 10 nM
CC/C(Nc1cn(C(C)C)nn1)=C1/C(=O)Nc2ccc(C(=O)NCC(F)(F)F)cc21 [Example 122] | 10 to 100 nM | > 600 nM | 10 to 100 nM
CC/C(Nc1cnn(C2CCN(C(C)C)CC2)c1)=C1/C(=O)Nc2ccc(C(C)=O)cc21 [Example 123] | 100 to 500 nM | 100 to 300 nM | 100 to 500 nM
CC/C(Nc1cccnc1)=C1/C(=O)Nc2ccc(C(=O)NCC(F)(F)F)cc21 [Example 124] | > 500 nM | > 600 nM | 100 to 500 nM
CC/C(Nc1cnn(C(C)C)c1)=C1/C(=O)Nc2ccc(C(=O)N(C)CC(F)(F)F)cc21 [Example 125] | 10 to 100 nM | 300 to 600 nM | 10 to 100 nM
CC/C(Nc1cnn(C(C)C)c1)=C1/C(=O)Nc2ccc(C(=O)NCCOC)cc21 [Example 126] | 100 to 500 nM | 300 to 600 nM | 10 to 100 nM
CC/C(Nc1cnn(C(C)C)c1)=C1/C(=O)Nc2ccc(C(=O)NCCC#N)cc21 [Example 127] | 10 to 100 nM | > 600 nM | 10 to 100 nM
CC/C(Nc1cnn(C(C)C)c1)=C1/C(=O)Nc2ccc(C(=O)NC[C@@H](C)OC)cc21 [Example 128] | 100 to 500 nM | 300 to 600 nM | 10 to 100 nM
CC/C(Nc1cnn(C(C)C)c1)=C1/C(=O)Nc2ccc(C(=O)NCC(C)C)cc21 [Example 130] | 10 to 100 nM | ≤ 100 nM | ≤ 10 nM
CC/C(Nc1cnn(C(C)C)c1)=C1/C(=O)Nc2ccc(C(=O)NCC3CC(F)(F)C3)cc21 [Example 134] | 10 to 100 nM | ≤ 100 nM | ≤ 10 nM
CC/C(Nc1cnn(C(C)C)c1)=C1/C(=O)Nc2ccc(C(=O)NCC(C)(C)F)cc21 [Example 135] | 10 to 100 nM | ≤ 100 nM | ≤ 10 nM

The next lines start with the values.

IC50 (ULK2 kinase) | IC50 [1] | IC50 (ULK1 kinase) | Compound
10 to 100 nM | 300 to 600 nM | ≤ 10 nM | CC/C(Nc1cnn(CCN(C)C)c1)=C1/C(=O)Nc2ccc(C(=O)NCC(F)(F)F)cc21 [Example 103]
10 to 100 nM | ≤ 100 nM | ≤ 10 nM | CC/C(Nc1cnn([C@H]2CCOC2)c1)=C1/C(=O)Nc2ccc(C(=O)NCC(F)(F)F)cc21 [Example 104]
10 to 100 nM | ≤ 100 nM | ≤ 10 nM | CC/C(Nc1cnn([C@@H]2CCOC2)c1)=C1/C(=O)Nc2ccc(C(=O)NCC(F)(F)F)cc21 [Example 105]
10 to 100 nM | 100 to 300 nM | ≤ 10 nM | CC/C(Nc1cnn(C2CCOCC2)c1)=C1/C(=O)Nc2ccc(C(=O)NCC(F)(F)F)cc21 [Example 106]
10 to 100 nM | ≤ 100 nM | ≤ 10 nM | CC/C(Nc1cnn(CC)c1)=C1/C(=O)Nc2ccc(C(=O)NCC(F)(F)F)cc21 [Example 107]
10 to 100 nM | > 600 nM | 10 to 100 nM | CC/C(Nc1cn[nH]c1)=C1/C(=O)Nc2ccc(C(=O)NCC(F)(F)F)cc21 [Example 108]
10 to 100 nM | ≤ 100 nM | 10 to 100 nM | CC/C(Nc1cnn(C(C)C)c1)=C1/C(=O)Nc2ccc(C(=O)NCC(F)F)cc21 [Example 112]
≤ 10 nM | ≤ 100 nM | ≤ 10 nM | CC/C(Nc1cnn(C2CCC2)c1)=C1/C(=O)Nc2ccc(C(=O)NCC(F)(F)F)cc21 [Example 117]
